Series [1] deals with heart failure subjects with reduced ejection fraction (HFrEF≤35%). Briefly: Single ascending dose trial, 2-D echocardiography: right ventricular systolic pressure (RVSP). It counts as in vivo, human. As for the experimental part:
(§1) A single-center, randomized, double-blind, placebo-controlled, single ascending dose trial of D-Arg-2′6′-Dmt-Lys-Phe-NH2 was performed in heart failure subjects aged 45-80 years (n=36) with reduced ejection fraction (HFrEF≤35%). Three sequential dose-escalation cohorts were enrolled and administered a single intravenous (IV) dose of D-Arg-2′6′-Dmt-Lys-Phe-NH2 by a 4-hour infusion. In each cohort, 8 subjects were randomly assigned to receive D-Arg-2′6′-Dmt-Lys-Phe-NH2 (active group) and 4 to receive placebo (placebo group infused with 0.9% saline solution in the same manner as the D-Arg-2′6′-Dmt-Lys-Phe-NH2 active group). Eligible subjects were admitted to the research unit on Day 1, were randomized and received the study drug infusion on Day 2 and were discharged on Day 3. Subjects returned to the research unit on Day 7 (+3) for follow-up. The dose levels of D-Arg-2′6′-Dmt-Lys-Phe-NH2 in Cohorts 1, 2, and 3 were 0.005, 0.05, and 0.25 mg/kg/hour, respectively.
(§2) A single dose of the aromatic-cationic peptide, D-Arg-2′6′-Dmt-Lys-Phe-NH2, was administered intravenously (IV) at 0.005 mg/kg/hour (Cohort 1; low dose), 0.05 mg/kg/hour (Cohort 2; intermediate dose), and 0.25 mg/kg/hour (Cohort 3; high dose) over 4 hours at 60 mL/hour.
(§3) Echocardiograms (2-D) were performed on Day 2 at pre-dose (0-hr), mid-dose (2-hr), end-dose (4-hr), and 6 hours, 8 hours, 12 hours after infusion initiation, and at Day 3 at 24 hours after infusion initiation in every subject. Primary echo endpoints included end-diastolic volume (EDV) and EDV index, and end-systolic volume (ESV) and ESV index. Secondary echo endpoints included left atrial (LA) volume, right ventricular fractional area change (RV FAC), and right ventricular systolic pressure (RVSP). Exploratory echo endpoints included global longitudinal strain.
(§4) All statistical analyses, summary tables and data listings were prepared using SAS software Version 9.2 or higher. Overall differences in pharmacokinetic parameters of systemic exposure (e.g., Cmax and AUC) across the 3 different dosing regimens were evaluated by ANOVA. In general, significance was determined at the p<0.05 level. For continuous variables, descriptive statistics (sample size, mean, standard deviation, median, minimum, and maximum values) were determined. For discrete variables, frequency distributions were generated.

For series [2] the test system is unchanged. In words: Single ascending dose trial, 2-D echocardiography: right ventricular fractional area change (RV FAC). The series is classed as in vivo, human. As to conditions: for RV FAC Δ from baseline, Mean Active Group with 95% CI: Cohort 3, 0.25 mg/kg/hour IV 4-hour infusion. The procedure: as §1, §2, §3, §4
Series [3] has as its system several mammalian cell types. As to conditions: cited from earlier work.
[4] abbreviates: Cohort 3, 0.25 mg/kg/hour, 6 Hours.
The mark [5] stands for this setting: Cohort 3, 0.25 mg/kg/hour, 8 Hours.
The mark [6] stands for this setting: Cohort 3, 0.25 mg/kg/hour, 12 Hours.
Setting [7] is: Cohort 3, 0.25 mg/kg/hour, 24 Hours.
The mark [8] stands for this setting: Cohort 3, 0.25 mg/kg/hour, End-Dose.
[9] abbreviates: Cohort 3, 0.25 mg/kg/hour, Mid-Dose.

As for D-Arg-2′6′-Dmt-Lys-Phe-NH2, the “RVSP Δ from baseline, Mean Active Group” value in series [1] (Cohort 2, 0.05 mg/kg/hour IV 4-hour infusion, 6 Hours) is listed as −4.8 mmHg; in series [1] (Cohort 2, 0.05 mg/kg/hour IV 4-hour infusion, 8 Hours), −6.5 mmHg; in series [1] (Cohort 2, 0.05 mg/kg/hour IV 4-hour infusion, 12 Hours), −5.6 mmHg; in series [1] (Cohort 2, 0.05 mg/kg/hour IV 4-hour infusion, 24 Hours), −5.3 mmHg; in series [1] (Cohort 2, 0.05 mg/kg/hour IV 4-hour infusion, End-Dose), −9.9 mmHg; in series [1] (Cohort 2, 0.05 mg/kg/hour IV 4-hour infusion, Mid-Dose) it was −8.5 mmHg. The “RVSP Δ from baseline, Mean Active Group” value in series [1] (Cohort 3, 0.25 mg/kg/hour IV 4-hour infusion, 6 Hours) was −11.7 mmHg; in series [1] (Cohort 3, 0.25 mg/kg/hour IV 4-hour infusion, 8 Hours) it was −1.3 mmHg; in series [1] (Cohort 3, 0.25 mg/kg/hour IV 4-hour infusion, 12 Hours), 2.6 mmHg; in series [1] (Cohort 3, 0.25 mg/kg/hour IV 4-hour infusion, 24 Hours), −1.6 mmHg; in series [1] (Cohort 3, 0.25 mg/kg/hour IV 4-hour infusion, End-Dose), −1.2 mmHg; in series [1] (Cohort 3, 0.25 mg/kg/hour IV 4-hour infusion, Mid-Dose) it was 0.9 mmHg. Moreover, the “RVSP Δ from baseline, Mean Difference (active vs pooled placebo)” value in series [1] (Cohort 2, 0.05 mg/kg/hour, 6 Hours) was −4.4 mmHg; in series [1] (Cohort 2, 0.05 mg/kg/hour, 8 Hours), −4.4 mmHg; in series [1] (Cohort 2, 0.05 mg/kg/hour, 12 Hours), −9.7 mmHg; in series [1] (Cohort 2, 0.05 mg/kg/hour, 24 Hours), −5.0 mmHg; in series [1] (Cohort 2, 0.05 mg/kg/hour, End-Dose), −19.1 mmHg; in series [1] (Cohort 2, 0.05 mg/kg/hour, Mid-Dose), −8.2 mmHg. Further, the “RVSP Δ from baseline, Mean Difference (active vs pooled placebo)” value in series [1] (setting [4]) is listed as −11.3 mmHg; in series [1] (setting [5]), 0.9 mmHg; in series [1] (setting [6]), −1.5 mmHg; in series [1] (setting [7]), −1.3 mmHg; in series [1] (setting [8]) it was −10.3 mmHg; in series [1] (setting [9]) it was 1.1 mmHg. In addition, in series [1] (Cohort 2, 0.05 mg/kg/hour, at end dose), the “pulmonary pressures (RVSP) relative to baseline, in words” value was “significant decrease in pulmonary pressures (RVSP)”. The “right ventricular fractional area change (RV FAC), in words” value in series [2] (Cohort 3, 0.25 mg/kg/hour) is “overall improvement in right ventricular fractional area change (RV FAC)”. Besides, the “RV FAC Δ from baseline, Mean Active Group with 95% CI” value is 2.6 (−0.7, 5.9) % in series [2] (6 Hours); 3.4 (−0.7, 7.5) % in series [2] (8 Hours); 1.7 (−4.0, 7.4) % in series [2] (12 Hours); 2.5 (−2.0, 7.0) % in series [2] (24 Hours); 0.3 (−4.8, 5.5) % in series [2] (End-Dose); 1.6 (−2.6, 5.8) % in series [2] (Mid-Dose). For the same substance, the “RV FAC Δ from baseline, Mean Difference (active vs pooled placebo)” value worked out at 3.8% in series [2] (setting [4]); 4.6% in series [2] (setting [5]); 8.9% in series [2] (setting [6]); 3.8% in series [2] (setting [7]); 0.3% in series [2] (setting [8]); 3.8% in series [2] (setting [9]).
For 2′,6′-Dmt-D-Arg-Phe-Lys-NH2, the “penetration of the plasma membrane” value in series [3] is “readily penetrates the plasma membrane of several mammalian cell types in an energy-independent manner”.

The values above are taken from US20190022165A1, “METHODS AND COMPOSITIONS FOR THE TREATMENT AND PREVENTION OF PULMONARY ARTERIAL HYPERTENSION” (STEALTH BIOTHERAPEUTICS CORP, priority 2016, published 2019).
